The values below come from patent publication US9260476B2, “RNA targeting compounds and methods for making and using same” (The Research Foundation for The State University of New York, priority 2007, dated 2016).

Experiment [1] deals with r(CUG)^exp nuclear foci in HeLa cells transfected with the DM1 mini-gene. Nature of the experiment: Fluorescence in situ hybridization (FISH) and confocal microscopy of nuclear foci. It counts as cell-based. To be noted: 25 μM, 16-24 h. From the text: Another hallmark of DM1-affected cells is the presence of nuclear foci that consist of r(CUG)^exp-protein complexes (26). Therefore, a fluorescence in situ hybridization assay (FISH) was used to probe if 4K-2-DR9 can decrease the occurrence of nuclear foci. HeLa cells were transfected with the DM1 mini-gene and treated with 4K-2-DR9. The cells were then probed with a 2′-O-methyl oligonucleotide labeled with Cy3 that is complementary to r(CUG)^exp. The cells were then imaged via confocal microscopy (FIG. 12). In the absence of 4K-2-DR9, multiple nuclear foci are observed in each cell, which correspond to r(CUG)^exp-protein complexes (FIG. 12a). […] Since 4K-2-DR9 is labeled with fluorescein, cellular permeability and localization can also be imaged.
HeLa cells were grown as monolayers in Mat-Tak glass-bottomed, 96-well plates. After the cells reached 90-95% confluency, they were transfected with 200 ng of a plasmid encoding a DM1 mini-gene (21) using Lipfoectamine 2000 per the manufacturer's standard protocol. […]
Another hallmark of DM1 is the presence of nuclear foci caused by aggregates of r(CUG)^exp and various proteins including MBNL1.(26-31) Thus, it was determined if nH-4 compounds can disrupt formation of nuclear foci. […] Fluorescence in situ hybridization (FISH) was then used to visualize the r(CUG)^exp. […]

The subject of another experiment is r(CUG)^exp-MBNL1 complex. To be noted: previously reported (13); cited from earlier work.

On to `CCCN(CC(=O)N(CCC)CC(=O)N(CCC)CC(=O)N(CCC)CC(=O)N(CC(=O)N(CCC)CC(=O)N(CCC)CC(=O)N(CCC)CC(=O)N(CCC)CC(=O)N(CC(N)=O)Cc1cn(CCCNC(=O)CCCOc2cccc(-c3nc4ccc(-c5nc6ccc(N7CCN(C)CC7)cc6[nH]5)cc4[nH]3)c2)nn1)Cc1cn(CCCNC(=O)CCCOc2cccc(-c3nc4ccc(-c5nc6ccc(N7CCN(C)CC7)cc6[nH]5)cc4[nH]3)c2)nn1)C(=O)CNCc1cn(CCCNC(=O)CCCOc2cccc(-c3nc4ccc(-c5nc6ccc(N7CCN(C)CC7)cc6[nH]5)cc4[nH]3)c2)nn1` [Compound 3H-4], for which the “disruption of nuclear foci” value in experiment [1] was “the number of foci is decreased and the foci are more diffuse”. Besides, the IC50 with r(CUG)^exp-MBNL1 complex is 410 nM.

Usually IC50 stands for the point on the concentration scale where inhibition reaches its midpoint.
